Values of other authors, collected in patent US7713983B2 (priority 2003, dated 2010).

What was measured:
NaV1.3 = NaV1.3 (Homo sapiens, UniProt Q9NY46); settings: read-out: TTX IC50
neuropathic pain = settings: in vivo

Sequence of NaV1.3 (Q9NY46 whole entry, looked up): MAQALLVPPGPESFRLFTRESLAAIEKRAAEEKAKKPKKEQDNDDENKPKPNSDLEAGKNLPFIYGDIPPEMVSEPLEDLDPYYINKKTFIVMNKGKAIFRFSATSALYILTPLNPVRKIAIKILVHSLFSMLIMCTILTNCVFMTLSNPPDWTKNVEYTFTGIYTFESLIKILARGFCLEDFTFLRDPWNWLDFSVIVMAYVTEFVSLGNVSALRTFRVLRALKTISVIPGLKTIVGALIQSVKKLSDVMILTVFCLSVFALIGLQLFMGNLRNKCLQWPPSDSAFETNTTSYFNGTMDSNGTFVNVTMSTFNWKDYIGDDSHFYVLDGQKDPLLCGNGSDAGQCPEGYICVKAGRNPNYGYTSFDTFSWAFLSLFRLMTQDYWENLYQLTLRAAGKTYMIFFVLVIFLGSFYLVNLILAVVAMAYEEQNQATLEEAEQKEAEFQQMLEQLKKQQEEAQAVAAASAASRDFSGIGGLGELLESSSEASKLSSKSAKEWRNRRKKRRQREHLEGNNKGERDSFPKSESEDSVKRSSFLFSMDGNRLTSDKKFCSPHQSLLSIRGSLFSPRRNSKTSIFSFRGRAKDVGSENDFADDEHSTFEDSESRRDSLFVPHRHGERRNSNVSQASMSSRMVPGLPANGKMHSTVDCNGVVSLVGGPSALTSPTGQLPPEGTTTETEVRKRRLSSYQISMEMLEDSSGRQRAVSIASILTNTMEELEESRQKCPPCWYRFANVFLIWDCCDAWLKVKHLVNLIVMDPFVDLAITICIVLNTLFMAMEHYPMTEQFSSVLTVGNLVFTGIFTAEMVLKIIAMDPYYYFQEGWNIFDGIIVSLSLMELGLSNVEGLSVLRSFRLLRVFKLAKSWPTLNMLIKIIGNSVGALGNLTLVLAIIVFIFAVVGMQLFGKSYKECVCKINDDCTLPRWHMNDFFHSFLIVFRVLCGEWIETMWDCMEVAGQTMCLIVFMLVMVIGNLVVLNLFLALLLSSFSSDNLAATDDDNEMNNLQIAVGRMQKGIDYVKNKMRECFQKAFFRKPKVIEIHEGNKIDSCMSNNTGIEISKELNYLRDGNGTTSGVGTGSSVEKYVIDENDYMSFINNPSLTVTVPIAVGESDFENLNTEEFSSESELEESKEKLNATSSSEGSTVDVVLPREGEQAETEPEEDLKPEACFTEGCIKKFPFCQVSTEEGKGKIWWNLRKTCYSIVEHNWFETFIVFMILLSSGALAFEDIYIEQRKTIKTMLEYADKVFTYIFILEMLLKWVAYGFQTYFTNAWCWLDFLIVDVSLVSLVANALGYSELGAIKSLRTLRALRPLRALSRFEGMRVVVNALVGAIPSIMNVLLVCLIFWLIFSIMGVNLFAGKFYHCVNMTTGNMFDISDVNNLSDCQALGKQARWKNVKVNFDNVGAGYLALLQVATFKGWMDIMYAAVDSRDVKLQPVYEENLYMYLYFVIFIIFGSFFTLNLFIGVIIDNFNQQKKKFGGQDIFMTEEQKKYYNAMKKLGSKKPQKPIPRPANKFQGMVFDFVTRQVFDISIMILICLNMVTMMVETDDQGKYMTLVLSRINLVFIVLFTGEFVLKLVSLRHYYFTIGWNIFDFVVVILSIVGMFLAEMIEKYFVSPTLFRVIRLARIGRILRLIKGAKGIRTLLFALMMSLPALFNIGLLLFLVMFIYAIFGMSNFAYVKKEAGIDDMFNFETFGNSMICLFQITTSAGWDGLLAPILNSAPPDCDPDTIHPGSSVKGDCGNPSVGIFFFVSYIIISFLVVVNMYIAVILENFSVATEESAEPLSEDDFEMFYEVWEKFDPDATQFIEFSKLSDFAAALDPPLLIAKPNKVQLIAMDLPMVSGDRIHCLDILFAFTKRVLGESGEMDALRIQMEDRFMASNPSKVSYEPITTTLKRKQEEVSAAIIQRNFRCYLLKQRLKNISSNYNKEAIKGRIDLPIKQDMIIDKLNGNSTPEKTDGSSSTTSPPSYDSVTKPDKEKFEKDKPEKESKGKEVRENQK

Compound | IC50 (NaV1.3) [nM] | share of patients in whom it works (neuropathic pain) [%]
NC1=N[C@H](O)[C@H]2[C@H]3O[C@]4(O)O[C@@H]([C@@H](O)[C@@]2(N1)[C@@H]4O)[C@]3(O)CO [TTX, tetrodotoxin] | 15 | –
NCC1(CC(=O)O)CCCCC1 [Gabapentin] | – | 60
